This passage reports IC50 results from US20090285774A1, “Hepatitis C Virus Inhibitors” (Bristol-Myers Squibb Company, priority 2008, published 2009).

This test has as its target T1, HCV NS3/4A protease complex, H77 strain (1a genotype) (Hepatitis C virus genotype 1a, UniProt P27958, C1454S/C1711G).
T1 construct: DNA encoding the recombinant HCV NS3/4A protease complex (amino acids 1027 to 1711) for these strains; inferred from pET21b vector and Ni-NTA purification; made in house; host or cells: Escherichia coli BL21 (DE3), pET21b
The test can be described thus: FRET peptide assay to monitor HCV NS3/4A proteolytic activity (H77 strain). The test is classed as biochemical. The source says: HCV NS3 protease complexes, derived from the BMS strain, H77 strain or J4L6S strain, were generated, as described below. These purified recombinant proteins were generated for use in a homogeneous assay (see below) to provide an indication of how effective compounds of the present disclosure would be in inhibiting HCV NS3 proteolytic activity.
Serum from an HCV-infected patient was obtained from Dr. T. Wright, San Francisco Hospital. An engineered full-length cDNA (compliment deoxyribonucleic acid) template of the HCV genome (BMS strain) was constructed from DNA fragments obtained by reverse transcription-PCR (RT-PCR) of serum RNA (ribonucleic acid) and using primers selected on the basis of homology between other genotype 1a strains. From the determination of the entire genome sequence, a genotype 1a was assigned to the HCV isolate according to the classification of Simmonds et al. (See P Simmonds, K A Rose, S Graham, S W Chan, F McOmish, B C Dow, E A Follett, P L Yap and H Marsdeni, J. Clin. Microbiol., 31(6):1493-1503 (1993)). […]

By IC50 is commonly meant the midpoint of a concentration-inhibition curve. Higher therefore signals a need for much substance.

T1 sequence (P27958 1027-1711 C1454S/C1711G, one chain of several): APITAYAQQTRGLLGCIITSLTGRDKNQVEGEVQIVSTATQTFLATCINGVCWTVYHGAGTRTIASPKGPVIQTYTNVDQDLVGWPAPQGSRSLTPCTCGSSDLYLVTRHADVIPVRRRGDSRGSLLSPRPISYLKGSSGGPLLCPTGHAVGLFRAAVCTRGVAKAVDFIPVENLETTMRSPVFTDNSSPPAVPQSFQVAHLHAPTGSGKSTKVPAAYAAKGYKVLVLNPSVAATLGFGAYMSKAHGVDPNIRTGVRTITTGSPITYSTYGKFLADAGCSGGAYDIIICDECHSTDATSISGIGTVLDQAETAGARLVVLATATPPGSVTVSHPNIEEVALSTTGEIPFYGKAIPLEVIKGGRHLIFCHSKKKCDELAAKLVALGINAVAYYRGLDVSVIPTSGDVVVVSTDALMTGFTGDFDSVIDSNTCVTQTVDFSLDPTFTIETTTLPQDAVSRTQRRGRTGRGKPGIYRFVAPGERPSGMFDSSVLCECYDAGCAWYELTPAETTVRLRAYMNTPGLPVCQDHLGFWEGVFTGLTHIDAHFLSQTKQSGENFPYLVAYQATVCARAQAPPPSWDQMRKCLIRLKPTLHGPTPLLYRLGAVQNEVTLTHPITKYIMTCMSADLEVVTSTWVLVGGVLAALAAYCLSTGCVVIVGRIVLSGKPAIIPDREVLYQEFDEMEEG

Molecule `C=C[C@@H]1C[C@]1(NC(=O)[C@@H]1C[C@@H](OC(=O)N2Cc3cccc(F)c3C2)CN1C(=O)C(Nc1cc(C)cc(C)n1)C(C)C)C(=O)NS(=O)(=O)C1CC1` (single isomer, unassigned) [Compound 2A] showed an IC50 of 1.4 nM.
